What was measured:
HUVEC cells [1] = test: Electric-field-induced elongation of endothelial cells (long:short axis ratio); format: cell-based
Method: HUVEC cells were seeded in a trough formed by two parallel (1 cm apart) strips of glass coverslip (No. 1, length of 22 mm) fixed to the base of the dish with silicone grease. Scratch lines were made perpendicular to the long axis of the chamber with a fine sterile needle and used as reference marks for directed cell migration. Cells were incubated for 24-48 hours (37° C., 5% CO2) before a roof coverslip was applied and sealed with silicone grease. The final dimensions of the chamber, through which current was passed, were 22×10×0.2 mm. Agar-salt bridges not less than 15 cm long were used to connect silver/silver-chloride electrodes in beakers of Steinberg's solution (58 mM NaCl, 0.67 mM KCl, 0.44 mM Ca(NO3)2, 1.3 mM MgSO4, 4.6 mM Trizma base, pH 7.8-8.0), to pools of excess culture medium at either side of the chamber. Field strengths were measured directly at the beginning of, the end of and during each experiment. No fluctuations in field strength were observed. […] (50 μM), the Rho kinase inhibitor Y27632 (50 μM), both Akt and Rho kinase inhibitors (10 μM each) or latrunculin (50 nM) for 1 hour before EF stimulation. The same concentration of drug was present during EF exposure in a CO2 incubator.
A series of images was taken with an image analyser immediately before EF exposure and at 4, 8 and 24 hours of EF exposure. Cell orientation was quantified as an orientation index (Oi), which is defined as Oi=cos2 (a), where a is the angle formed by the long axis of a cell with a line drawn […] to the field lines. A cell with its long axis parallel to the vector of the EF will have an Oi of −1, and a cell with its long axis exactly perpendicular to the EF vector will have an Oi of +1. […] The significance of this two-dimensional orientation distribution against randomness was calculated using Rayleigh's distribution. A long:short axis ratio was calculated for assessment of elongation.
HUVEC cells elongated dramatically in an EF. […] We quantified the elongation of the cells using a long:short axis ratio. […]

HUVEC cells [2] = test: Electric-field-induced reorientation of endothelial cells (orientation index Oi); format: cell-based; conditions: for orientation response in EF (in words): inhibitors 50 μM (latrunculin 50 nM), 1 hour before and during EF
Method: A series of images was taken with an image analyser immediately before EF exposure and at 4, 8 and 24 hours of EF exposure. Cell orientation was quantified as an orientation index (Oi), which is defined as Oi=cos2 (a), where a is the angle formed by the long axis of a cell with a line drawn perpendicular to the field lines. A cell with its long axis parallel to the vector of the EF will have an Oi of −1, and a cell with its long axis exactly perpendicular to the EF vector will have an Oi of +1. A randomly oriented population of cells will have an average Oi {defined as [Σn cos2(α)]+n} of 0. The significance of this two-dimensional orientation distribution against randomness was calculated using Rayleigh's distribution. A long:short axis ratio was calculated for assessment of elongation.
Cell alignment was quantified using an orientation index Oi=cos2(α), where a is the angle formed between the long axis of a cell and a line drawn perpendicular to the field lines. In cells oriented perpendicular to the field vector, the Oi is +1, cells parallel to the field vector give an Oi of −1 and random orientation gives an Oi of 0.

[3] = tested on: HaCaT human keratinocytes; test: Scratch assay, HaCaT keratinocyte migration, Example 3; conditions: catalase over-expression; 5 mM N-acetylcysteine 1 h pretreatment; 50 nM IGF-1R inhibitor
Method: Cell culture—Immortalized HaCaT human keratinocytes were grown in Dulbecco's low-glucose modified Eagle's medium (Life Technologies, Gaithersburg, MD, U.S.A.) supplemented with 10% fetal bovine serum, 100 U/ml penicillin, and 100 g/ml streptomycin. The cells were maintained in a standard culture incubator with humidified air containing 5% CO2 at 37° C.
Scratch assay—A cell migration assay was performed using culture inserts (IBIDI®, Verona, WI) according to the manufacturer's instructions. Cell migration was measured using time-lapse phase-contrast microscopy following withdrawal of the insert. Images were analyzed using the AxioVision Rel 4.8 software.
N-Acetyl Cysteine Treatment—Cells were pretreated with 5 mM of the thiol antioxidant N-acetylcysteine (Sigma) for 1 h before start of the scratch assay.
IGF-1R inhibition—When applicable, cells were preincubated with 50 nM IGF-1R inhibitor, picropodophyllin (Calbiochem, MA) just prior to the Scratch Assay.
Catalase gene delivery—HaCaT cells were transfected with 2.3×10^7 pfu AdCatalase or with the empty vector as control in 750 μL of media. Subsequently, 750 μL of additional media was added 4 h later and the cells were incubated for 72 h.

Row | Molecule | long:short axis ratio / elongation response in EF-treated cells (in words) (HUVEC cells [1]) | orientation response in EF (in words) (HUVEC cells [2]) | effect on the increased migration triggered by LLEC [3] | further results
1 | 1-L-6-hydroxymethyl-chiro-inositol 2-[(R)-2-O-methyl-3-O-octadecylcarbonate] [Akt inhibitor] | significantly decreased the long:short axis ratio | significantly decreased the orientation response |  | 
2 | COc1cc([C@@H]2c3cc4c(cc3[C@H](O)[C@H]3COC(=O)[C@@H]23)OCO4)cc(OC)c1OC [IGF-1R inhibitor, picropodophyllin] |  |  | attenuated the increased keratinocyte migration | 
3 | C/C1=C/C(=O)O[C@@H]2C[C@@H](CC[C@H](C)/C=C\C=C\CC1)O[C@@](O)([C@@H]1CSC(=O)N1)C2 [Latrunculin A] | completely abolished the EF-induced elongation response | suppressed the orientation response significantly |  | 
4 | CC(=O)N[C@@H](CS)C(=O)O [N-Acetyl Cysteine] |  |  | failed to reproduce the increased migration | 
5 | N#CC(=C(/N)Sc1ccccc1N)/C(C#N)=C(\N)Sc1ccccc1N [U0126] |  | decreased the orientation to a similar extent |  | 
6 | COc1cc2ncnc(Nc3ccc(Cl)cc3F)c2cc1OC [VEGFR inhibitor, 4-[(4′-chloro-2′-fluoro)phenylamino]-6,7-dimethoxyquinazoline] |  | completely abolished the reorientation |  | 
7 | C[C@@H](N)[C@H]1CC[C@H](C(=O)Nc2ccncc2)CC1 [Y27632] | significantly decreased the long:short axis ratio |  |  | orientation index Oi (HUVEC cells [2]; value in sentence on U0126 (50 μM)): 0.33±0.03
8 | catalase |  |  | attenuated the increased migration | 

Reference: US12185774B2, “Methods and devices for preventing viral transmission” (priority 2020, dated 2025)
